# Measurements published in patent US20230255954A1, “INTERLEUKIN 33 (IL-33) INHIBITION FOR TREATMENT OF CANCER, FIBROSIS AND INFLAMMATION” (The General Hospital Corporation, priority 2020, published 2023).
# Assays:
# [1] = test system: mouse Il33 gene promoter (IL-33 promoter-luci reporter); assay: IL-33 promoter luciferase screen of FDA-approved Drug Library; format: cell-based; conditions: 10 μM, 24 hours; IL-33 promoter-luci vs control-luci stable Pam212 cells; 1056 molecules tested
# Procedure: Pam212 cells were grown at 37° C. in DMEM (Thermo Fisher Scientific, Waltham, Mass., catalog no. 11995065) supplemented with 10% fetal bovine serum (Thermo Fisher Scientific, catalog no. 26140079), 1× penicillin-streptomycin-glutamine (Thermo Fisher Scientific, catalog no. 10378016), 1×MEM non-essential amino acids solution (Thermo Fisher Scientific, catalog no. 11140050), 1×HEPES (Thermo Fisher Scientific, catalog no. 15630080) and 0.1% 2-Mercaptoethanol (Thermo Fisher Scientific, catalog no. 21985023). PyMT cell lines (derived from a primary breast tumor of MMTV-PyMrg mouse on a C57BL/6 background) were grown at 37° C. in RPMI Medium 1640 (Thermo Fisher Scientific, catalog no. 11875093) supplemented with 10% fetal bovine serum, 1× penicillin-streptomycin-glutamine and 0.1% 2-Mercaptoethanol. IL-33 promoter-luci vector (GeneCopoeia, Rockville, Md., catalog no. MPRM3494-PG02) or Control-luci vector (deletion form of IL-33 promoter region from IL-33 promoter-luci vector) or Poly (I:C) (Invivogen, San Diego, Calif., catalog no. tlrl-pic) in Pam212 cells were performed using Lipofectamine 2000 (Thermo Fisher Scientific, catalog no. 11668019) according to the manufacturer's instructions.
# After transfection of plasmids in Pam212 cells, cells were incubated with 3 μg/ml of puromycin (Invivogen, San Diego, Calif., catalog no. ant-pr-1) for positive transfected cell selection. After following 2 days, medium was changed new puromycin contained medium for further selection. After following 2 days, cells were moved to new plate with puromycin contained medium. Puromycin selection was repeated for five times more.
# 1000 stable cells were seed to 384 wells (Corning, Glendale, Ariz., catalog no. 3570) and each of plate was incubated 24 hours. Following day, 10 μM of FDA-approved Drug Library compounds (Selleckchem, Houston, Tex., catalog no. L1300) were added to each well. After 24 hours, 5 μL of luciferase buffer from Pierce Gaussia luciferase glow assay kit (Thermo Fisher Scientific, Waltham, Mass., catalog no. 16160) were added each well and incubated for 5 min. Each plate was read and measured with luminescence by EnVision 2014 plate reader (Perkin Elmer, Waltham, Mass., catalog no. 2014 EnVision).
# To make small molecule screening platform, we generated both IL-33 promoter-luci and control-luci over-expressed stable epithelial cell line (Pam212) by multiple puromycin selection strategy (FIG. 10A). To find molecules that can inhibit IL-33 expression, we tested 1056 FDA-approved small molecules against our reporter cell line. […] To find bona fide inhibitors of IL-33, we checked RNA level of Il33 by qPCR in cells treated with inducer of IL-33 expression, Poly (I:C). After cells were treated by Poly (I:C), RNA level of Il33 was increased compared to carrier group. However, Il33 RNA level was decreased by pitavastatin and tropisetron in Poly I:C-treated cells (FIGS. 10C and D). […] Finally, endogenous IL-33 protein level was decreased after treatment with pitavastatin in a dose-dependent manner (FIG. 10F). Therefore, pitavastatin is a small inhibitor molecule of IL-33.
# [2] = test system: Il33 expression induced by Poly (I:C) in Pam212 cells; assay: Il33 RNA by qPCR in Poly (I:C)-treated Pam212 cells; format: cell-based, mouse
# Procedure: (§1) Pam212 cells were grown at 37° C. in DMEM (Thermo Fisher Scientific, Waltham, Mass., catalog no. 11995065) supplemented with 10% fetal bovine serum (Thermo Fisher Scientific, catalog no. 26140079), 1× penicillin-streptomycin-glutamine (Thermo Fisher Scientific, catalog no. 10378016), 1×MEM non-essential amino acids solution (Thermo Fisher Scientific, catalog no. 11140050), 1×HEPES (Thermo Fisher Scientific, catalog no. 15630080) and 0.1% 2-Mercaptoethanol (Thermo Fisher Scientific, catalog no. 21985023). […]
# (§2) Mouse dorsal skin samples were homogenized and lysed in RLT lysis solution (QIAGEN, catalog no. 79216)/0.1% MeOH using Mini-BeadBeater-8 (BioSpec Products, Inc., Bartlesville, Okla.). Total RNA was extracted using an RNeasy micro kit and quantified using NanoDrop ND-1100 (NanoDrop Technologies, Wilmington, Del.). cDNA samples were synthesized from 1 μg of total RNA using Invitrogen SuperScripts III Reverse Transcriptase (Thermo Fisher Scientific, catalog no. 18080085). Expression levels of all cDNA samples were determined with LightCycler 480 system (Roche Molecular Systems Inc., Pleasanton, Calif.) using TaqMan Universal Master Mix II (Thermo Fisher Scientific, catalog no. 44-400-40). […]
# [3] = test system: endogenous Il33 expression in PyMT breast cancer cell line; assay: Endogenous Il33 RNA in PyMT breast cancer cell line; format: cell-based, mouse
# Procedure: as §1, §2
# [4] = biological target: T1, RUNX2 transcription factor (mouse, UniProt Q08775 1-607, limits assumed); assay: immunoprecipitation with anti-IL-33 antibody from transfected Pam212 lysate, immunoblot for RUNX2
# T1 construct: Detected by immunoblot (anti-RUNX2 clone D1L7F) after immunoprecipitation of IL-33; The species follows from the mouse cell lines; also called endogenous RUNX2
# T1 sequence (Q08775 whole entry): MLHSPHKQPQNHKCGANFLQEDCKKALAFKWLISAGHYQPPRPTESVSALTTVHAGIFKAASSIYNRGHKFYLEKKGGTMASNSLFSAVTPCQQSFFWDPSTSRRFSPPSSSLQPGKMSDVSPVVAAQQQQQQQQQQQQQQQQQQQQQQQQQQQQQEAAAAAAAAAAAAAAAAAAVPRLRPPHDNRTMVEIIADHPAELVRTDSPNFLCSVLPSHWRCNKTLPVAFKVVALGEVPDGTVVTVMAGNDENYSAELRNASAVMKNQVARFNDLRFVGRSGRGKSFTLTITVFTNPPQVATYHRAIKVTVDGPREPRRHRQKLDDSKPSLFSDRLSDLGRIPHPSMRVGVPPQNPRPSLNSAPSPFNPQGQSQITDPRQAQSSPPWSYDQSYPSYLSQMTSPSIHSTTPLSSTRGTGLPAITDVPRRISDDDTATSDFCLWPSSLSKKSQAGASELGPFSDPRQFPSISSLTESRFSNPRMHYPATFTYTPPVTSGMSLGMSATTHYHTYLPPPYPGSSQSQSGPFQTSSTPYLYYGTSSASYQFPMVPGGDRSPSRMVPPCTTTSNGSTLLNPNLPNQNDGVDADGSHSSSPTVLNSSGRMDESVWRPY
# Procedure: (G) Immunoblot for interaction between nuclear IL-33 and RUNX2. After Pam212 cells were transfected with IL-33 full length or cytokine domain for 24 hours, cell lysates were subjected to immunoprecipitation with anti-IL-33 antibody followed by immunoblot analysis.
# Cell lysates were prepared in buffer-A consisting of 50 mM Tris-HCL (pH 8.0), 150 mM NaCl, 0.5% NP-40 and 1× protease inhibitor cocktail. After confirming the concentration of total proteins, the cell lysates were incubated with IL-33 (Nessy-1) overnight at 4° C. and incubated with 30 μL of 50% slurry of protein A-conjugated Sepharose (Cell Signaling Technology, Danvers, Mass., catalog no. 9863S) for the next 2 hours. The samples were precipitated, washed three times with buffer-A containing 300 mM NaCl. Samples were added to 25 μL SDS sampling buffer (Boston Bioproducts, catalog no. BP-111R) and boiled at 95° C. for 10 min. Samples were subjected to SDS-polyacrylamide gel electrophoresis followed by immunoblot analysis.
IL-33/Control luminescence ratio (inhibitory effect against IL-33 reporter) [1],binding result [4],Molecule,Il33 RNA level [2],endogenous Il33 RNA level [3]
small molecule candidates,,CCCSc1nc(N[C@@H]2C[C@H]2c2ccc(F)c(F)c2)c2nnn([C@@H]3C[C@H](OCCO)[C@@H](O)[C@H]3O)c2n1 [ticagrelor],,
small molecule candidates,,CN1[C@@H]2CC[C@H]1C[C@@H](OC(=O)c1c[nH]c3ccccc13)C2 [tropisetron],decreased,inhibitory effect

# Second part, the molecule before the results:
Molecule,IL-33/Control luminescence ratio (inhibitory effect against IL-33 reporter) [1],binding result [4],Il33 RNA level [2],endogenous Il33 RNA level [3]
CC1(C)[C@@H](O[C@H]2O[C@H](C(=O)O)[C@@H](O)[C@H](O)[C@H]2O[C@@H]2O[C@H](C(=O)O)[C@@H](O)[C@H](O)[C@H]2O)CC[C@]2(C)[C@H]3C(=O)C=C4[C@@H]5C[C@@](C)(C(=O)O)CC[C@]5(C)CC[C@@]4(C)[C@]3(C)CC[C@@H]12 [ammonium glycyrrhizinate],small molecule candidates,,,
CCCCCCCCCCCCCCCC[N+](C)(C)C [cetrimonium bromide],small molecule candidates,,,
"HA-IL-33 cytokine domain (other, mouse, UniProt Q8BVZ5 109-266, looked up, domain: cytokine domain; Overexpressed in Pam212 cells for 24 hours; localized to the cytoplasm; not shown: HA tag from the pcDNA3.1-HA vector) SIQGTSLLTQSPASLSTYNDQSVSFVLENGCYVINVDDSGKDQEQDQVLLRYYESPCPASQSGDGVDGKKLMVNMSPIKDTDIWLHANDKDYSVELQRGDVSPPEQAFFVLHKKSSDFVSFECKNLPGTYIGVKDNQLALVEEKDESCNNIMFKLSKI",,no binding,,
